US20020146679A1, “Method for creating endothelial cell dysfunction in cell culture” (priority 2001, published 2002)
Where “and” joins values, the source holds several entries; their conditions need not be identical. Equal values may be shown once. Entries after “also recorded” stand apart in the source; their conditions may differ.

How the values were obtained:
Assay type in all cases: cell-based, human
[1] = test system: EA.hyb926 Endothelial Cells; assay: Gene expression by Affymetrix gene chip profiling
Method: Control cells were treated with vehicle for the same times and RNA isolated as above. Transcript integrity was monitored using denaturing agarose gel electrophoresis in 1X MOPS. Biotinylated target RNA was prepared from 15 μg of total RNA using the Affymetrix protocol. Briefly, double-stranded cDNA was prepared from the RNA template using a modified oligo-dT primer containing a 5′ T7 RNA polymerase promoter sequence and the Superscript Choice System for cDNA Synthesis (Life Technologies Inc., Gaithersburg, Md.). Following phenol-chloroform extraction and ethanol precipitation, one-half of the cDNA reaction (0.5-1.0 μg) was used as template in an in vitro transcription reaction containing T7 RNA polymerase, a mixture of unlabeled ATP, CTP, GTP, and UTP, and biotin-11-CTP and biotin-16-UTP (BioArray High Yield Kit, ENZO, Inc.). The resulting biotinylated-cRNA “target” was purified on an affinity resin (RNeasy, Qiagen) and quantified using the convention that 1 O.D. Two-hundred sixty corresponds to 40 μg/mL of RNA. Typical yields ranged from 50 to 100 μg with transcript sizes between […] as determined by gel electrophoresis. Fifteen micrograms of biotinylated cRNA was randomly fragmented to an average size of 50 nucleotides by incubating at 94° C. for 35 minutes in 40 mM TRIS-acetate, pH 8.1, 100 mM potassium acetate, and 30 mM magnesium acetate. The fragmented cRNA was hybridized in a solution containing 100 mM MES, 1 M [Na^+], 20 mM EDTA, 0.01% TWEEN 20, 50 pM of Control Oligonucleotide B2 (Affymetrix, Inc.), 0.1 mg/mL of sonicated herring sperm DNA, and 0.5 mg/mL BSA for 16 hours at 45° C. on a Human 6800 Affymetrix GeneChip. Each hybridization included a mixture of four bacterial biotinylated-RNA transcripts (BioB, BioC, BioD, and cre) spiked at 1.5, 5, 25, and 100 pM, respectively. The hybridization reactions were processed and scanned according to the standard Affymetrix protocols.
EA cells incubated with 10 ng/mL TNFα(with 5% FBS) for 6 hours (short-term) or 6 days (chronic exposure) were evaluated for identification of cytokine-responsive endothelial genes. […] In addition, ecNOS expression was reduced 4-fold from control, consistent with the western and northern blot data (FIGS. 6 and 7).

[2] = test system: EA hy926 endothelial cells; assay: Tube formation assay on MATRIGEL (in vitro angiogenesis)
Method: According to an aspect of the invention, EA hy926 (EA) cells are initially grown in standard endothelial cell culture medium consisting of MCDB 131 (Clonetics Corp.) supplemented with 10 fetal bovine serum (FBS) (Hyclone laboratories), 100 U/mL penicillin/streptomycin, 50 μg/mL gentamicin, and other endothelial growth supplements (EGM bullet kit, Clonetics Corp.). […] Cells were grown in these conditions for 6 to 7 days. EA cells are then dispersed by trypsinization, counted, suspended in EGM media containing […], and plated onto the surface of a MATRIGEL® basement membrane protein matrix (0.5 mL/well, dispensed into 24-well tissue culture plates according to the manufacturer's instructions) at a density of 5×10^5 cells per well (24 well plate). The cells were then placed in a CO2 incubator at 37° C. and observed over a 16- to 24-hour period for cell differentiation into tube-like structures resembling capillaries. […]
EBM medium and its supplement were purchased from Clonetics. […] EA cells were then dispersed by trypsinization, counted, suspended in EGM media containing 10% FBS, and plated onto the surface of a MATRIGEL® basement membrane matrix (0.5 mL/well, dispensed into 24-well tissue culture plates according to the manufacturer's instructions) at a density of 5×10^5 cells per well (24-well plate). […]

EA hy926 cells = assay: Western blotting analysis of endothelial marker proteins
Method: The whole cell lysates were generated by suspending cell pellets with protein lysis buffer containing 10 mM Tris.CI (pH 7.6), 1 mM EDTA (pH 8.0), 100 mM NaCI, 1 μg/mL aprotinin, and 100 μg/mL phenylmethylsulfonyl fluoride. The lysates were sonicated for 15 seconds at output control level 4 with Sonifier 450 model manufactured by VWR Scientific products. Fifty microgram lysates protein for each sample was electrophoretically separated in 8% to 16% Tris-Glycine Gel and transferred to a nitrocellulose membrane. The proteins on the membrane were stained with PONCEAS solution to check if the proteins loading and transfer were even. The membranes were separately incubated with 5% dry milk Phosphate-buffered saline (PBS) at room temperature for 2 hours and followed by overnight incubation at 4° C. with fresh 5% dry milk PBS containing primary antibodies at 1:2000 dilution. The peroxidase conjugated secondary antibodies was diluted at 1:4000 dilution with 5% PBS buffer. The incubation with secondary antibody was carried out at room temperature for 1 hour. The membranes were then subject to staining with ECL solution and exposure to films.

[3] = 6-day (chronic) TNFα treatment, 5% FBS
[4] = SNAP 200 μM co-incubated with TNFα for 6 days

TNFα
ecNOS expression reduced from control ([1]; 6 day TNFα treatment, 10 ng/mL with 5% FBS): 4 fold | Short- (6 hr Tx) Fold Increase: MCP-1 ([1]; TNFα 6 hr, accession HG4069): 4.5 Fold | Short- (6 hr Tx) Fold Increase: Type IV collagenase ([1]; TNFα 6 hr, accession J05070): 4.7 Fold | Short- (6 hr Tx) Fold Increase: GM-CSF ([1]; TNFα 6 hr, accession M13207): 23.0 Fold | Short- (6 hr Tx) Fold Increase: Vitronectin ([1]; TNFα 6 hr, accession M14648): 4.3 Fold | Short- (6 hr Tx) Fold Increase: RANTES ([1]; TNFα 6 hr, accession M21121): 39.5 Fold | Short- (6 hr Tx) Fold Increase: Interleukin-8 ([1]; TNFα 6 hr, accession M28130): 4.6 Fold | Short- (6 hr Tx) Fold Increase: TNF-Inducible, CD44 adhesion receptor ([1]; TNFα 6 hr, accession M31165): 2.7 Fold | Short- (6 hr Tx) Fold Increase: NFkB1 (p105) ([1]; TNFα 6 hr, accession M58603): 4.4 Fold | Short- (6 hr Tx) Fold Increase: A20: TNFα-inducible transcription factor ([1]; TNFα 6 hr, accession M59465): 6.5 Fold | Short- (6 hr Tx) Fold Increase: VCAM-1 ([1]; TNFα 6 hr, accession M60335): 32 Fold and 32.3 Fold | Short- (6 hr Tx) Fold Increase: ecNOS (NOS 3) ([1]; TNFα 6 hr, accession M93718, nc = no change from vehicle treated): did not affect | Short- (6 hr Tx) Fold Increase: HIF-1 α ([1]; TNFα 6 hr, accession U22431): 4.6 Fold | Short- (6 hr Tx) Fold Increase: VEGF C ([1]; TNFα 6 hr, accession U43142): 7.8 Fold | Short- (6 hr Tx) Fold Increase: Hiapl ([1]; TNFα 6 hr, accession U45878): 17.7 Fold | Short- (6 hr Tx) Fold Increase: Prointerleukin-1β ([1]; TNFα 6 hr, accession X04500): 42.2 Fold | Short- (6 hr Tx) Fold Increase: Manganese superoxide dismutase ([1]; TNFα 6 hr, accession X07834): 13.1 Fold | Short- (6 hr Tx) Fold Increase: Macrophage inflammatory protein2-β ([1]; TNFα 6 hr, accession X53800): 11.2 Fold | Short- (6 hr Tx) Fold Increase: Integrin, αV subunit (vitronectin receptor) ([1]; TNFα 6 hr, accession X68742): 4.3 Fold | Short- (6 hr Tx) Fold Increase: MT-MMP ([1]; TNFα 6 hr, accession X83535): 4.3 Fold | Chronic- (6 day Tx) Fold Increase: MCP-1 ([1]; TNFα 6 day, accession HG4069): 8.7 Fold | Chronic- (6 day Tx) Fold Increase: Type IV collagenase ([1]; TNFα 6 day, accession J05070): 27.2 Fold | Chronic- (6 day Tx) Fold Increase: Von Willebrand factor ([1]; TNFα 6 day, accession M10321): −8.3 Fold | Chronic- (6 day Tx) Fold Increase: GM-CSF ([1]; TNFα 6 day, accession M13207): 37.1 Fold | Chronic- (6 day Tx) Fold Increase: Vitronectin ([1]; TNFα 6 day, accession M14648): 6.8 Fold | Chronic- (6 day Tx) Fold Increase: RANTES ([1]; TNFα 6 day, accession M21121): 62.8 Fold | Chronic- (6 day Tx) Fold Increase: Interleukin-8 ([1]; TNFα 6 day, accession M28130): 32.6 Fold | Chronic- (6 day Tx) Fold Increase: TNF-Inducible, CD44 adhesion receptor ([1]; TNFα 6 day, accession M31165): 37.1 Fold | Chronic- (6 day Tx) Fold Increase: NFkB1 (p105) ([1]; TNFα 6 day, accession M58603): 2.9 Fold | Chronic- (6 day Tx) Fold Increase: A20: TNFα-inducible transcription factor ([1]; TNFα 6 day, accession M59465): 6.6 Fold | Chronic- (6 day Tx) Fold Increase: ecNOS (NOS 3) ([1]; TNFα 6 day, accession M93718): −3.9 Fold | Chronic- (6 day Tx) Fold Increase: TRAIL ([1]; TNFα 6 day, accession U37518): 4.8 Fold | Chronic- (6 day Tx) Fold Increase: VEGF C ([1]; TNFα 6 day, accession U43142): 27.1 Fold | Chronic- (6 day Tx) Fold Increase: Hiapl ([1]; TNFα 6 day, accession U45878): 6.9 Fold | Chronic- (6 day Tx) Fold Increase: Prointerleukin-1β ([1]; TNFα 6 day, accession X04500): 213.1 Fold | Chronic- (6 day Tx) Fold Increase: Manganese superoxide dismutase ([1]; TNFα 6 day, accession X07834): 63.4 Fold | Chronic- (6 day Tx) Fold Increase: Macrophage inflammatory protein2-β ([1]; TNFα 6 day, accession X53800): 40.6 Fold | Chronic- (6 day Tx) Fold Increase: Integrin, αV subunit (vitronectin receptor) ([1]; TNFα 6 day, accession X68742): 6.8 Fold | Chronic- (6 day Tx) Fold Increase: MCP-3 ([1]; TNFα 6 day, accession X72308): 19.9 Fold | Chronic- (6 day Tx) Fold Increase: CD95 (Fas) ([1]; TNFα 6 day, accession X83492): 4.3 Fold | Chronic- (6 day Tx) Fold Increase: MT-MMP ([1]; TNFα 6 day, accession X83535): 26.1 Fold | Chronic- (6 day Tx) Fold Increase: MCP-2 ([1]; TNFα 6 day, accession X99886): 131.7 Fold | increased expression of protective genes (superoxide dismutase, A-20, hiap-1, TRAIL, CD95) ([1]; TNFα exposure to EA cells): 4.3-17.7 fold | increases in expression of proinflammatory (proatherogenic) genes ([1]; chronic TNFα exposure (6 days)): 6.8-75.8 fold | serum-stimulated tube formation ([2]; TNFα exposure greater than 3 days (up to 6 days) in 5% FBS, then plated on matrigel): cells no longer form tubes; also recorded: fail to form tubes | CD31 protein expression (EA hy926 cells; [3]): increased | PAI-1 protein expression (EA hy926 cells; [3]): increased | VCAM-1 protein expression (EA hy926 cells; [3]): increased | caveolin-1 protein expression (EA hy926 cells; [3]): increased | ecNOS protein expression (EA hy926 cells; [3]): markedly decreased

CC(=O)NC(C(=O)O)C(C)(C)SN=O (racemic) [SNAP, S-Nitroso-N-acetyl-D, L-penicillamine, reference compound]
tube formation / protection from TNFα-induced dysfunction ([2]; SNAP 200 μM co-incubated with TNFα 10 ng/mL for 6 days prior to plating on MATRIGEL): protects cells from TNFα induced dysfunction | PAI-1 protein expression (EA hy926 cells; [4]): reduces | VCAM-1 protein expression (EA hy926 cells; [4]): reduces | caveolin-1 protein expression (EA hy926 cells; [4]): reduces
